In PubChem BioAssay (NCI):
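Five concentrations, 48 hours, 96-well plates. TGI is the concentration that stops growth completely.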

Tests used:
Test in all cases: NCI tumour cell line growth inhibition, 48 h
786-0 renal = system: 786-0 renal
A549 NSCLC = system: A549 NSCLC
ACHN renal = system: ACHN renal
BT-549 breast = system: BT-549 breast
CAKI-1 renal = system: CAKI-1 renal
CCRF-CEM leukemia = system: CCRF-CEM leukemia
COLO 205 colon = system: COLO 205 colon
DU-145 prostate = system: DU-145 prostate
EKVX NSCLC = system: EKVX NSCLC
HCC-2998 colon = system: HCC-2998 colon
HCT-116 colon = system: HCT-116 colon
HCT-15 colon = system: HCT-15 colon
HL-60(TB) leukemia = system: HL-60(TB) leukemia
HOP-62 NSCLC = system: HOP-62 NSCLC
HOP-92 NSCLC = system: HOP-92 NSCLC
HS 578T breast = system: HS 578T breast
HT29 colon = system: HT29 colon
IGROV1 ovarian = system: IGROV1 ovarian
K-562 leukemia = system: K-562 leukemia
KM12 colon = system: KM12 colon
LOX IMVI melanoma = system: LOX IMVI melanoma
M14 melanoma = system: M14 melanoma
MALME-3M melanoma = system: MALME-3M melanoma
MCF7 breast = system: MCF7 breast
MDA-MB-231 breast = system: MDA-MB-231 breast
MDA-MB-435 = system: MDA-MB-435
MDA-N = system: MDA-N
MOLT-4 leukemia = system: MOLT-4 leukemia
NCI-H226 lung = system: NCI-H226 lung
NCI-H23 lung = system: NCI-H23 lung
NCI-H460 lung = system: NCI-H460 lung
NCI-H522 lung = system: NCI-H522 lung
NCI/ADR-RES ovarian = system: NCI/ADR-RES ovarian
OVCAR-3 ovarian = system: OVCAR-3 ovarian
OVCAR-4 ovarian = system: OVCAR-4 ovarian
OVCAR-5 ovarian = system: OVCAR-5 ovarian
OVCAR-8 ovarian = system: OVCAR-8 ovarian
PC-3 prostate = system: PC-3 prostate
RPMI-8226 leukemia = system: RPMI-8226 leukemia
RXF 393 renal = system: RXF 393 renal
SF-268 CNS = system: SF-268 CNS
SF-295 CNS = system: SF-295 CNS
SF-539 CNS = system: SF-539 CNS
SK-MEL-2 melanoma = system: SK-MEL-2 melanoma
SK-MEL-28 melanoma = system: SK-MEL-28 melanoma
SK-MEL-5 melanoma = system: SK-MEL-5 melanoma
SK-OV-3 ovarian = system: SK-OV-3 ovarian
SN12C renal = system: SN12C renal
SNB-19 CNS = system: SNB-19 CNS
SNB-75 CNS = system: SNB-75 CNS
SR leukemia = system: SR leukemia
SW-620 colon = system: SW-620 colon
T-47D breast = system: T-47D breast
TK-10 renal = system: TK-10 renal
U251 CNS = system: U251 CNS
UACC-257 melanoma = system: UACC-257 melanoma
UACC-62 melanoma = system: UACC-62 melanoma
UO-31 renal = system: UO-31 renal
A498 renal = system: A498 renal

Q: Which results are given for `O=c1oc2ccccc2cc1-c1cn2cc(Cl)ccc2n1`?
A: TGI (786-0 renal): 8.95 µM; TGI (A549 NSCLC): 16.8 µM; TGI (ACHN renal): 3.31 µM; TGI (BT-549 breast): 21.9 µM; TGI (CAKI-1 renal): 3.28 µM; TGI (CCRF-CEM leukemia): > 100 µM; TGI (COLO 205 colon): > 50.3 µM; TGI (DU-145 prostate): > 36.8 µM; TGI (EKVX NSCLC): > 100 µM; TGI (HCC-2998 colon): 21.7 µM; TGI (HCT-116 colon): 14.7 µM; TGI (HCT-15 colon): 20.7 µM; TGI (HL-60(TB) leukemia): > 61.7 µM; TGI (HOP-62 NSCLC): 6.22 µM; TGI (HOP-92 NSCLC): 36.4 µM; TGI (HS 578T breast): 8.19 µM; TGI (HT29 colon): > 59.8 µM; TGI (IGROV1 ovarian): 17.7 µM; TGI (K-562 leukemia): > 100 µM; TGI (KM12 colon): 12.1 µM; TGI (LOX IMVI melanoma): 18.7 µM; TGI (M14 melanoma): 15.2 µM; TGI (MALME-3M melanoma): 4.77 µM; TGI (MCF7 breast): 2.12 µM; TGI (MDA-MB-231 breast): 23.1 µM; TGI (MDA-MB-435): 0.138 µM; TGI (MDA-N): 0.428 µM; TGI (MOLT-4 leukemia): > 36.1 µM; TGI (NCI-H226 lung): > 57.3 µM; TGI (NCI-H23 lung): 21.1 µM; TGI (NCI-H460 lung): 13.6 µM; TGI (NCI-H522 lung): 0.722 µM; TGI (NCI/ADR-RES ovarian): 2.73 µM; TGI (OVCAR-3 ovarian): 2.51 µM; TGI (OVCAR-4 ovarian): 12.8 µM; TGI (OVCAR-5 ovarian): 33.3 µM; TGI (OVCAR-8 ovarian): 18.6 µM; TGI (PC-3 prostate): 16.4 µM; TGI (RPMI-8226 leukemia): 59.7 µM; TGI (RXF 393 renal): 9.48 µM; TGI (SF-268 CNS): 16.7 µM; TGI (SF-295 CNS): 5.36 µM; TGI (SF-539 CNS): 22.2 µM; TGI (SK-MEL-2 melanoma): 24.9 µM; TGI (SK-MEL-28 melanoma): 17.9 µM; TGI (SK-MEL-5 melanoma): 19.1 µM; TGI (SK-OV-3 ovarian): 5.96 µM; TGI (SN12C renal): 22.4 µM; TGI (SNB-19 CNS): 3.66 µM; TGI (SNB-75 CNS): > 21.2 µM; TGI (SR leukemia): > 39.2 µM; TGI (SW-620 colon): 31.7 µM; TGI (T-47D breast): > 54.9 µM; TGI (TK-10 renal): 22.3 µM; TGI (U251 CNS): 13.9 µM; TGI (UACC-257 melanoma): > 45.9 µM; TGI (UACC-62 melanoma): 0.898 µM; TGI (UO-31 renal): 6.79 µM

Q: Which TGI (786-0 renal) does the source give for `O=C(Cn1c(C(=O)/C=C/c2cccs2)nc2ccccc21)c1ccc(Cl)cc1` here?
A: 32.8 µM

Q: And the TGI (A498 renal)?
A: 57.9 µM

Q: What about the TGI (A549 NSCLC) of the same molecule?
A: > 100 µM

Q: And the TGI (ACHN renal)?
A: > 100 µM

Q: What about the TGI (BT-549 breast) of the same molecule?
A: 63.6 µM

Q: What about the TGI (COLO 205 colon) of the same molecule?
A: 38.3 µM

Q: What about the TGI (DU-145 prostate) of the same molecule?
A: > 100 µM

Q: And the TGI (HCC-2998 colon)?
A: 29.8 µM

Q: What about the TGI (HCT-116 colon) of the same molecule?
A: 39.5 µM

Q: What about the TGI (HCT-15 colon) of the same molecule?
A: 83 µM

Q: And the TGI (HL-60(TB) leukemia)?
A: 61.3 µM

Q: What about the TGI (HOP-62 NSCLC) of the same molecule?
A: > 100 µM

Q: And the TGI (HOP-92 NSCLC)?
A: 93 µM

Q: And the TGI (HS 578T breast)?
A: 38.7 µM

Q: And the TGI (HT29 colon)?
A: 56.9 µM

Q: And the TGI (IGROV1 ovarian)?
A: 77.7 µM

Q: What about the TGI (K-562 leukemia) of the same molecule?
A: 45.7 µM

Q: What about the TGI (KM12 colon) of the same molecule?
A: 46.6 µM

Q: What about the TGI (LOX IMVI melanoma) of the same molecule?
A: 27.3 µM

Q: What about the TGI (M14 melanoma) of the same molecule?
A: 40.7 µM

Q: And the TGI (MALME-3M melanoma)?
A: 54.7 µM

Q: What about the TGI (MCF7 breast) of the same molecule?
A: 48.4 µM

Q: And the TGI (MDA-MB-231 breast)?
A: 46 µM

Q: And the TGI (MDA-MB-435)?
A: > 100 µM

Q: And the TGI (MDA-N)?
A: 56.7 µM

Q: What about the TGI (NCI-H226 lung) of the same molecule?
A: > 100 µM

Q: What about the TGI (NCI-H23 lung) of the same molecule?
A: 36.8 µM

Q: What about the TGI (NCI-H460 lung) of the same molecule?
A: 25.8 µM

Q: And the TGI (NCI/ADR-RES ovarian)?
A: 38.4 µM

Q: What about the TGI (OVCAR-3 ovarian) of the same molecule?
A: 57.3 µM

Q: And the TGI (OVCAR-4 ovarian)?
A: 76.9 µM

Q: And the TGI (OVCAR-5 ovarian)?
A: > 100 µM

Q: What about the TGI (RPMI-8226 leukemia) of the same molecule?
A: 29.3 µM

Q: And the TGI (RXF 393 renal)?
A: > 100 µM

Q: And the TGI (SF-268 CNS)?
A: 66.5 µM

Q: And the TGI (SF-539 CNS)?
A: > 100 µM

Q: What about the TGI (SK-MEL-2 melanoma) of the same molecule?
A: 20.8 µM

Q: And the TGI (SK-MEL-28 melanoma)?
A: > 100 µM

Q: What about the TGI (SK-MEL-5 melanoma) of the same molecule?
A: 43.3 µM

Q: And the TGI (SK-OV-3 ovarian)?
A: > 100 µM

Q: And the TGI (SN12C renal)?
A: 50.1 µM

Q: And the TGI (SNB-19 CNS)?
A: > 100 µM

Q: And the TGI (SNB-75 CNS)?
A: > 100 µM

Q: And the TGI (SR leukemia)?
A: 22 µM

Q: What about the TGI (SW-620 colon) of the same molecule?
A: > 100 µM

Q: And the TGI (T-47D breast)?
A: > 100 µM

Q: And the TGI (TK-10 renal)?
A: 89.5 µM

Q: And the TGI (U251 CNS)?
A: 30.3 µM

Q: What about the TGI (UACC-257 melanoma) of the same molecule?
A: 58.1 µM

Q: And the TGI (UACC-62 melanoma)?
A: > 100 µM

Q: What about the TGI (UO-31 renal) of the same molecule?
A: 69.6 µM

Q: Which results are given for `COc1ccc(C(SC2C(O)C(CO)OC2n2ccc(N)nc2=O)(c2ccccc2)c2ccc(OC)cc2)cc1` (configuration not stated)?
A: TGI (786-0 renal): 30.8 µM; TGI (A549 NSCLC): 54.2 µM; TGI (ACHN renal): > 100 µM; TGI (BT-549 breast): 43 µM; TGI (CAKI-1 renal): > 100 µM; TGI (CCRF-CEM leukemia): > 100 µM; TGI (COLO 205 colon): 28.7 µM; TGI (DU-145 prostate): 39.4 µM; TGI (EKVX NSCLC): 50.4 µM; TGI (HCC-2998 colon): 32.6 µM; TGI (HCT-116 colon): 29.4 µM; TGI (HCT-15 colon): 46.2 µM; TGI (HL-60(TB) leukemia): 69.4 µM; TGI (HOP-62 NSCLC): 40.5 µM; TGI (HOP-92 NSCLC): 37.3 µM; TGI (HS 578T breast): 48.1 µM; TGI (HT29 colon): 36.2 µM; TGI (IGROV1 ovarian): 67 µM; TGI (K-562 leukemia): 88.3 µM; TGI (KM12 colon): 71.2 µM; TGI (LOX IMVI melanoma): 33.1 µM; TGI (M14 melanoma): 27.9 µM; TGI (MALME-3M melanoma): 28.3 µM; TGI (MCF7 breast): 50.6 µM; TGI (MDA-MB-231 breast): 30.8 µM; TGI (MDA-MB-435): 28.2 µM; TGI (MDA-N): 24.2 µM; TGI (MOLT-4 leukemia): > 100 µM; TGI (NCI-H226 lung): 28.3 µM; TGI (NCI-H23 lung): 57.6 µM; TGI (NCI-H460 lung): 27.2 µM; TGI (NCI-H522 lung): 31.2 µM; TGI (NCI/ADR-RES ovarian): 60 µM; TGI (OVCAR-3 ovarian): 48.5 µM; TGI (OVCAR-4 ovarian): 78.2 µM; TGI (OVCAR-5 ovarian): 50.8 µM; TGI (OVCAR-8 ovarian): > 100 µM; TGI (PC-3 prostate): 41.1 µM; TGI (RPMI-8226 leukemia): 59.3 µM; TGI (RXF 393 renal): 31.5 µM; TGI (SF-268 CNS): 39.5 µM; TGI (SF-295 CNS): 49.8 µM; TGI (SF-539 CNS): 36.3 µM; TGI (SK-MEL-2 melanoma): 33 µM; TGI (SK-MEL-28 melanoma): 75.6 µM; TGI (SK-MEL-5 melanoma): 25.6 µM; TGI (SK-OV-3 ovarian): 56.1 µM; TGI (SN12C renal): 27.5 µM; TGI (SNB-19 CNS): 64.4 µM; TGI (SNB-75 CNS): 46.6 µM; TGI (SR leukemia): 58 µM; TGI (SW-620 colon): > 100 µM; TGI (T-47D breast): 47.4 µM; TGI (TK-10 renal): 66.2 µM; TGI (U251 CNS): 33 µM; TGI (UACC-257 melanoma): 41.7 µM; TGI (UACC-62 melanoma): 33 µM; TGI (UO-31 renal): 42.8 µM
